Data reported in US20220193013A1, “Pharmaceutical Composition for Treatment or Prevention of Multiple Inflammatory Disorders” (priority 2020, published 2022).
Like-named read-outs stand apart in the source and are kept apart here.

Assays:
[1] = tested on: acute lung injury plus hyperthermia, CD-1 mice; type: in vivo; conditions: for tolerability: mouse, in vivo
Procedure: This example provides results of a second modified acute lung injury plus hyperthermia study to evaluate the effect of denatonium acetate. The same procedure was used as in Example 7. Starting three days before the induction of lung injury, groups of six CD-1 mice each were treated prophylactically with vehicle or 92.4 mg/kg denatonium acetate (DA) (administered by twice-daily (BID) oral gavage (PO)) or with 3 mg/kg DA (administered by once-daily (QD) intraperitoneal (IP) injection). On Day 0, lung injury was induced by intratracheal instillation with 50 μL of 1 mg/mL bacterial lipopolysaccharide (LPS), and hyperthermia was induced by placing the animals in a 39° C. incubator. On Day 1 (i.e., 24 hours after induction), animals were euthanized and bronchoalveolar lavage fluid (BALF) was collected. The BALF specimens were assessed for cytokine concentrations (using a multiplex bead-based assay), and protein levels, and neutrophil counts (by fluorescence-activated cell sorting (FACS)). Additionally, lungs were collected, fixed, stained with Masson's trichrome, and assessed histologically. Three days of repeat PO dosing with 92.4 mg/kg DA (BID) or IP dosing with 3 mg/kg DA (QD) was well-tolerated in female CD-1 mice. […] This inference is consistent with the observation that deaths were seen both with vehicle and test article dosing. No other adverse clinical observations were noted during 3 days of test article administration. […] IL-13, MIP-1β, MCSF, and MIG. […] Thus, BID PO treatment with 92.4 mg/kg DA or QD IP injection with 3 mg/kg DA provided significant attenuation of the accumulation of multiple cytokines in the lungs of this mouse model of acute lung injury, along with nominal activity in counteracting neutrophil infiltration and lung damage in these animals.

healthy mouse = assay: cytokine profile and routes of administration in healthy mouse; type: in vivo; conditions: for VEGF (versus controls): p=0.001
Procedure: This example provides results of a study to evaluate the effect of denatonium acetate on a healthy mouse as measured by cytokine profile and routes of administration of DA. The study groups were: (1) Vehicle group, N=12, treated with distilled water, gavage, BID; (2) DA oral low dose group, N=12, treated with DA at a dose of 23.1 mg/kg (salt weight), gavage, BID; (3) DA oral high dose group, N=12, treated with DA at a dose of 92.4 mg/kg (salt weight), gavage, BID; (4) DA IV low dose group, N=12, treated with DA at a dose of 1 mg/kg (salt weight), iv bolus, QD; (5) DA IV high dose group, N=12, treated with ARD-101 at a dose of 3 mg/kg (salt weight), iv bolus, QD.

[2] = tested on: leptin-deficient (ob/ob) mice; assay: body weight study in leptin-deficient (ob/ob) mice, 56 days; type: in vivo, mouse
Procedure: Therefore, ob/ob mice are a predictive in vivo model for these indications. This example provides results of a study of DA plus another compound (CQL) on body weight in leptin-deficient (ob/ob) mice. Vehicle group (N=14) were treated with distilled water by gavage BID, and DA (N=14) at a dose of 50 mg/kg by gavage BID. The study period was for 56 days+2-3 days testing period afterward. Body weight change measured 3X per week, food intake was measure twice per week, metabolic biomarkers (blood glucose, blood insulin, blood HbA1c, HDL, LDL, triglyceride and bile acid) were measured at beginning and end of study. Cytokine analysis was measured at end on Day 56.

[3] = tested on: inflammatory biomarkers in tested animals; assay: biomarkers compared across many studies (Table 2); type: in vivo; conditions: PO 92.4 mg/kg DA BID
Procedure: The many examples provided herein show the effect of the denatonium salts on various in vivo and in vitro models of various disease indications. In addition, blood samples were taken from the tested (and control) animals and various biomarkers were measured and compared. FIGS. 70A-C show graphs comparing biomarkers across many studies. […] It should be noted that clusters of multiple biomarkers predict effectiveness for each disease indication and that grouping is shown in FIG. 71.

[4] = IP 3 mg/kg QD, compared to vehicle
[5] = oral 92.4 mg/kg BID, compared to vehicle
[6] = DA 50 mg/kg BID, day 56, no significant difference
[7] = DA 50 mg/kg gavage BID, 56 days
[8] = DA 50 mg/kg gavage BID, compared to vehicle

## CC(=O)[O-].CC[N+](CC)(CC(=O)Nc1c(C)cccc1C)Cc1ccccc1 [DA, denatonium acetate]
[1]; IP 3 mg/kg QD
  BALF neutrophil counts (by FACS assay): nominal decreases
  BALF protein concentrations: nominal (but nonsignificant) changes
  severity of lung pathology (by histological scoring): nominal decreases in the severity
[1]; [4]
  BALF concentration of G-CSF: significant decreases
  BALF concentration of IL2: significant decreases
  BALF concentration of IL-3: significant decreases
  BALF concentration of IL-4: significant decreases
  BALF concentration of IL-13: significant decreases
  BALF concentration of IP-10: significant decreases
  BALF concentration of M-CSF: significant decreases
  BALF concentration of MCP-1: significant decreases
  BALF concentration of MIG: significant decreases
  BALF concentration of eotaxin: significant decreases
[1]; ip, 3 mg/kg
  tolerability: well-tolerated
[1]; po, 92.4 mg/kg
  tolerability: well-tolerated
[1]; oral 92.4 mg/kg BID
  BALF neutrophil counts (by FACS assay): nominal decreases
  BALF protein concentrations: nominal (but nonsignificant) changes
  severity of lung pathology (by histological scoring): nominal decreases in the severity
[1]; [5]
  BALF concentration of IL-2: significant decreases
  BALF concentration of IL-3: significant decreases
  BALF concentration of IL-10: significant decreases
  BALF concentration of IL-13: significant decreases
  BALF concentration of MCSF: significant decreases
  BALF concentration of MIG: significant decreases
  BALF concentration of MIP-1β: significant decreases
Healthy mouse; either iv DA dose (1 or 3 mg/kg iv bolus QD)
  biomarker (cytokine) effects: no biomarker (cytokine) effects
Healthy mouse; higher dose oral DA 92.4 mg/kg BID
  VEGF (versus controls): significant decreases
Healthy mouse; higher dose oral DA 92.4 mg/kg BID, p=0.003
  IL-9 (versus controls): significant decreases
Healthy mouse; higher dose oral DA 92.4 mg/kg BID, p=0.03
  GM-CSF (versus controls): significant decreases
Healthy mouse; higher dose oral DA 92.4 mg/kg BID, p=0.05
  KC (versus controls): significant decreases
Healthy mouse; iv administration only
  side effects: toxic side effects
Healthy mouse; lower dose oral DA 23.1 mg/kg BID
  VEGF (versus controls): significant decreases
Healthy mouse; lower dose oral DA 23.1 mg/kg BID, p=0.003
  G-CSF (versus controls): significant decreases
Healthy mouse; lower dose oral DA 23.1 mg/kg BID, p=0.005
  MCP-1 (versus controls): significant decreases
Healthy mouse; lower dose oral DA 23.1 mg/kg BID, p=0.015
  MIP-2 (versus controls): significant decreases
Healthy mouse; lower dose oral DA 23.1 mg/kg BID, p=0.03
  IL-13 (versus controls): significant decreases
Healthy mouse; lower dose oral DA 23.1 mg/kg BID, p=0.04
  IL-1α (versus controls): significant decreases
[2]; [6]
  IL-1β level, decreased by, compared to the vehicle group: 19.1%
  IL-6 level, decreased by, compared to the vehicle group: 61.4%
  MCP-1 level, decreased by, compared to the vehicle group: 20.9%
  RANTES level, decreased by, compared to the vehicle group: 1.7%
[2]; DA 50 mg/kg BID, day 56, p=0.026
  MIG (versus controls): significant decreases
[2]; DA 50 mg/kg BID, day 56, p=0.047
  Eotaxin (versus controls): significant decreases
[2]; DA 50 mg/kg gavage BID
  serum HDL levels: no significant effects
[2]; [7]
  body weight: no significant effect
  daily food consumption: no significant effect
  serum HBA1c levels: no significant effect
  serum glucose levels: significantly decreased
  serum insulin levels: no significant effect
[2]; [8]
  serum LDL levels: significantly lowered
  serum bile acids levels: significantly increased
  serum triglyceride levels: significantly lowered
[3]
  Eotaxin, Decreased Percentage Compared to Vehicle: −18.6%
  G-CSF, Decreased Percentage Compared to Vehicle: −37.5%
  GM-CSF, Decreased Percentage Compared to Vehicle: −2.3%
  IFN-γ, Decreased Percentage Compared to Vehicle: −37.3%
  IL-1α, Decreased Percentage Compared to Vehicle: −18.2%
  IL-1β, Decreased Percentage Compared to Vehicle: −12.0%
  IL-3, Decreased Percentage Compared to Vehicle: −74.5%
  IL-5, Decreased Percentage Compared to Vehicle: −29.1%
  IL-6, Decreased Percentage Compared to Vehicle: −34.2%
  IL-10, Decreased Percentage Compared to Vehicle: −92.5%
  IL-12 (p70), Decreased Percentage Compared to Vehicle: −28.0%
  IL-17, Decreased Percentage Compared to Vehicle: −21.2%
  KC, Decreased Percentage Compared to Vehicle: −21.6%
  LIX, Decreased Percentage Compared to Vehicle: −7.3%
  MCP-1, Decreased Percentage Compared to Vehicle: −24.2%
  MIG, Decreased Percentage Compared to Vehicle: −13.2%
  MIP-1α, Decreased Percentage Compared to Vehicle: −3.4%
  MIP-1β, Decreased Percentage Compared to Vehicle: −10.2%
  MIP-2, Decreased Percentage Compared to Vehicle: −76.3%
  RANTES, Decreased Percentage Compared to Vehicle: −20.6%
